# Source: patent publication US20100298141A1, “SUBSTITUTED PYRIDINE N-OXIDE HERBICIDES” (E. I. DU PONT DE NEMOURS AND COMPANY, priority 2007, published 2010)
# How the values were obtained:
# [1] = tested on: morningglory; test: Test A pre-/postemergence greenhouse test; type: in vivo, Ipomoea spp.; conditions: for Plant response rating, Morningglory: 0 to 100 scale where 0 is no effect and 100 is complete control; for Morningglory plant response rating: 0 to 100 scale
# Procedure, shortened: (§1)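 Visual injury ratings, made relative to untreated controls roughly ten days after treatment, cover both preemergence and postemergence application. Compounds in a surfactant-containing non-phytotoxic solvent were sprayed onto the soil surface after sowing and, simultaneously, onto young plants at the one- to two-leaf stage.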
# [2] = tested on: redroot pigweed; test: Test A pre-/postemergence greenhouse test; type: in vivo, Amaranthus retroflexus; conditions: for Plant response rating, Pigweed: 0 to 100 scale where 0 is no effect and 100 is complete control; for Pigweed plant response rating: 0 to 100 scale
# Procedure, shortened: as §1
# [3] = tested on: corn; test: Test A pre-/postemergence greenhouse test; type: in vivo, Zea mays; conditions: for Plant response rating, Corn: 0 to 100 scale where 0 is no effect and 100 is complete control; for Corn plant response rating: 0 to 100 scale
# Procedure, shortened: as §1
# [4] = tested on: Italian ryegrass; test: Test C pre-/postemergence test; type: in vivo, Lolium multiflorum
# Procedure, shortened: (§2)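 Seeds were planted and treated preemergence with test chemical in a non-phytotoxic solvent mixture containing surfactant. Postemergence applications of the same formulation went onto plants 2 to 18 cm tall (1- to 4-leaf stage). A dash marks no test result.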
# [5] = tested on: wheat; test: Test C pre-/postemergence test; type: in vivo, Triticum aestivum
# Procedure, shortened: as §2
# [6] = tested on: wild oat; test: Test C pre-/postemergence test; type: in vivo, Avena fatua
# Procedure, shortened: as §2
# [7] = tested on: bermudagrass; test: Test C pre-/postemergence test; type: in vivo, Cynodon dactylon
# Procedure, shortened: as §2
# [8] = tested on: cocklebur; test: Test C pre-/postemergence test; type: in vivo, Xanthium strumarium
# Procedure, shortened: as §2
# [9] = tested on: corn; test: Test C pre-/postemergence test; type: in vivo, Zea mays
# Procedure, shortened: as §2
# [10] = tested on: giant foxtail; test: Test C pre-/postemergence test; type: in vivo, Setaria faberii
# Procedure, shortened: as §2
# [11] = tested on: johnsongrass; test: Test C pre-/postemergence test; type: in vivo, Sorghum halepense; conditions: for Johnsongrass plant response rating: preemergence, scale 0 (no effect) to 100 (complete control)
# Procedure, shortened: as §2
# [12] = tested on: kochia; test: Test C pre-/postemergence test; type: in vivo, Kochia scoparia
# Procedure, shortened: as §2
# [13] = tested on: morningglory; test: Test C pre-/postemergence test; type: in vivo, Ipomoea coccinea
# Procedure, shortened: as §2
# [14] = tested on: yellow nutsedge; test: Test C pre-/postemergence test; type: in vivo, Cyperus esculentus
# Procedure, shortened: as §2
# [15] = tested on: common (oilseed) sunflower; test: Test C pre-/postemergence test; type: in vivo, Helianthus annuus
# Text: Seeds of plant species selected from blackgrass (Alopecurus myosuroides), downy brome (Bromus tectorum), green foxtail (Setaria viridis), Italian ryegrass (Lolium multiflorum), wheat (Triticum aestivum), wild oat (Avena fatua), catchweed bedstraw (Galium aparine), Russian thistle (Salsola kali), […] (Cynodon dactylon), Surinam grass (Brachiaria decumbens), cocklebur (Xanthium strumarium), corn (Zea mays), crabgrass (Digitaria sanguinalis), woolly cupgrass (Eriochloa villosa), giant foxtail (Setaria faberii), Goosegrass (Eleusin indica), johnsongrass (Sorghum halepense), kochia (Kochia scoparia), lambsquarters (Chenopodium album), morningglory (Ipomoea coccinea), eastern black nightshade (Solanum ptycanthum), yellow nutsedge (Cyperus esculentus), pigweed (Amaranthus retroflexus), common ragweed (Ambrosia elation), soybean (Glycine max), common (oilseed) sunflower (Helianthus annuus), and velvetleaf (Abutilon theophrasti) were planted and treated preemergence with test chemicals formulated in a non-phytotoxic solvent mixture which included a surfactant. At the same time, plants selected from these crop and weed species and also winter barley (Hordeum vulgare), canarygrass (Phalaris minor), and chickweed (Stellaria media) were treated with postemergence applications of some of the test chemicals formulated in the same manner. Plants ranged in height from 2 to 18 cm (1- to 4-leaf stage) for postemergence treatments. […] At time of treatment, test pots were flooded to 3 cm above the soil surface, treated by application of test compounds directly to the paddy water, and then maintained at that water depth for the duration of the test. […] A dash (-) response means no test result.
# [16] = tested on: rice; test: Test C flooded paddy test; type: in vivo, Oryza sativa; conditions: Flood
# Procedure, shortened: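 Under a constant 3 cm flood, test compounds went directly into the paddy water. Following 13 to 15 days of greenhouse growth, treated species and controls were compared by eye.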
# [17] = Postemergence, 500 g ai/ha, 0 is no effect, 100 is complete control
# [18] = Preemergence, 125 g ai/ha, 0 no effect, 100 complete control
# [19] = 62 g ai/ha, Preemergence, scale 0 to 100
# [20] = 125 g ai/ha, preemergence, scale 0 (no effect) to 100 (complete control)
# [21] = Preemergence, 31 g ai/ha, scale 0 to 100 (0 no effect, 100 complete control)
# [22] = preemergence, 250 g ai/ha, scale 0 (no effect) to 100 (complete control)
compound,measurement,setting,value
CCn1nc(C(F)(F)F)c(C[S+]([O-])c2cc(C)cc[n+]2[O-])c1OCC(F)(F)F (racemic) [Compound 66],"Plant response rating, Morningglory","[1]; Postemergence, 125 g ai/ha",60
same,Morningglory plant response rating,[1]; [17],90
same,Morningglory plant response rating,[1]; [18],70
same,"Plant response rating, Morningglory","[1]; Preemergence, 500 g ai/ha",100
same,"Plant response rating, Pigweed","[2]; Postemergence, 125 g ai/ha",60
same,Pigweed plant response rating,[2]; [17],90
same,Pigweed plant response rating,[2]; [18],100
same,"Plant response rating, Pigweed","[2]; Preemergence, 500 g ai/ha",100
same,"Plant response rating, Corn","[3]; Postemergence, 125 g ai/ha",50
same,Corn plant response rating,[3]; [17],80
same,Corn plant response rating,[3]; [18],30
same,"Plant response rating, Corn","[3]; Preemergence, 500 g ai/ha",80
same,"Ryegrass, Italian plant response rating",[4]; [19],90
same,"Ryegrass, Italian plant response rating",[4]; [20],100
same,"Plant response rating, Ryegrass, Italian",[4]; [21],55
same,Wheat plant response rating,[5]; [19],85
same,Wheat plant response rating,[5]; [20],98
same,"Plant response rating, Wheat",[5]; [21],0
same,Wheat plant response rating,[5]; [22],100
same,"Oat, Wild plant response rating",[6]; [19],85
same,"Oat, Wild plant response rating",[6]; [20],95
same,"Plant response rating, Oat, Wild",[6]; [21],85
same,"Oat, Wild plant response rating",[6]; [22],95
same,Bermudagrass plant response rating,"[7]; 62 g ai/ha, Preemergence, scale 0 to 100 (0 no effect, 100 complete control)",100
same,Bermudagrass plant response rating,[7]; [20],100
same,"Plant response rating, Bermudagrass",[7]; [21],100
same,Bermudagrass plant response rating,[7]; [22],100
same,Cocklebur plant response rating,[8]; [19],0
same,Cocklebur plant response rating,[8]; [22],85
same,Corn plant response rating,[9]; [19],80
same,Corn plant response rating,[9]; [20],100
same,Corn plant response rating,[9]; [22],100
same,"Foxtail, Giant plant response rating",[10]; [19],100
same,"Foxtail, Giant plant response rating",[10]; [20],100
same,"Plant response rating, Foxtail, Giant",[10]; [21],100
same,"Foxtail, Giant plant response rating",[10]; [22],100
same,Johnsongrass plant response rating,[11]; 125 g ai/ha,80
same,"Plant response rating, Johnsongrass",[11]; [21],80
same,Johnsongrass plant response rating,[11]; 250 g ai/ha,80
same,Kochia plant response rating,[12]; [19],100
same,Kochia plant response rating,[12]; [20],100
same,"Plant response rating, Kochia",[12]; [21],100
same,Kochia plant response rating,[12]; [22],100
same,Morningglory plant response rating,[13]; [19],90
same,Morningglory plant response rating,[13]; [20],90
same,"Plant response rating, Morningglory",[13]; [21],50
same,Morningglory plant response rating,[13]; [22],100
same,"Nutsedge, Yellow plant response rating",[14]; [19],30
same,"Nutsedge, Yellow plant response rating",[14]; [20],40
same,"Plant response rating, Nutsedge, Yellow",[14]; [21],30
same,"Nutsedge, Yellow plant response rating",[14]; [22],50
same,Sunflower plant response rating,[15]; [19],80
same,Sunflower plant response rating,[15]; [20],80
same,"Plant response rating, Sunflower",[15]; [21],30
same,Sunflower plant response rating,[15]; [22],98
same,"Plant response rating, Rice","[16]; 62 g ai/ha, scale 0 to 100 (0 no effect, 100 complete control)",20
same,"Plant response rating, Rice","[16]; 250 g ai/ha, scale 0 to 100, 0 no effect, 100 complete control, 13 to 15 days",70
